# Laboratory results: patent US8877706B2, “Maytansinoid derivatives” (Bio-Thera Solutions, Ltd., Co., priority 2012, dated 2014)
# Experiments:
# tubulin = assay: HTS-Tubulin Polymerization Assay Kit, tubulin polymerization in vitro; type: biochemical; settings: 1 μM preparations, 10 μL added to 100 μL 4 mg/ml tubulin; 405 nm, 37° C.; compared with the PBS buffer
# Protocol: According to the instruction of kit, pre-warm the 96-well plate to 37° C. for 30 min prior to starting the assay. At the same time, the spectrophotometer (SpectraMax, Molecular Devices, USA) was set as follow: wavelength, 405 nm; temperature, 37° C.; Kinetic, 31 cycles of 1 reading per minute. Make cold G-PEM buffer (990 μL General Tubulin Buffer+10 μL GTP Stock) and keep it on ice. […] Immediately place the plate into the spectrophotometer and start recording using the kinetic setup described above. […] Nocodazole, the tubulin polymerization inhibitor, was set as a negative control. The metabolite Cys-3AA-MDC was prepared by reaction of 3AA-MDC with cysteine under the base DIEA in CH2Cl2. LC-MS (M+H^+) calc.: 964.5. found: 964.2. Rt: 12.97 min. The metabolite Lys-MCC-MDC was prepared by reaction of SMCC-MDC with lysine under the base DIEA in DMF. LC-MS (M+H^+) calc.: 1103.7. found: 1103.2. Rt: 13.00 and 13.18 min.
# [1] = test system: human acute lymphoblastic leukemia line C.E.M.; settings: cited from earlier work
# [2] = versus methotrexate, daunorubicin, and vincristine; cited from earlier work
# Raji cells = assay: Effect on the growth of Raji cells (CCK-8); settings: 3 days
# Protocol: Briefly, 10 thousands cells in 100 μL of DMEM:F12 (GBICO, CA) culture medium without serum were seeded into each well of a 96-well plate. Twice-fold serial dilutions of antibodies or conjugated form were prepared and each diluted antibodies were added in triplicate to the wells and the cultures were incubated at 37° C. for 3 days. The controls consisted of either medium alone or medium containing of Raji cell. After incubation, CCK-8 was added to each well and the absorbance at 450 nm of each well was determined in a Spectra Max spectrophotometer (Molecular Devices, Sunnyvale, Calif.).
# [3] = test system: EGFR positive tumor cell line A431; assay: Growth inhibition, relative cell proliferation with CCK-8, A431; type: cell-based, human; settings: A431, 72 hours
# Protocol: Briefly, cells were detached by using 0.25% (vol/vol) trypsin and suspended in complete medium. Aliquots of cells were plated into 96-well microdilution plates. […] After 72 hours, plates were washed twice with PBS (pH 7.5), and analyzed for relative cell proliferation with CCK-8 reagent.
compound,measurement,setting,value
"COc1cc2cc(c1Cl)N(C)C(=O)C[C@H](OC(=O)[C@H](C)N(C)C(=O)CCCCCN1C(=O)C=CC1=O)[C@]1(C)OC1[C@H](C)[C@@H]1C[C@@](O)(NC(=O)O1)[C@H](OC)/C=C/C=C(\C)C2 (stereo partly shown) [3AA-MDC, N2′-deacetyl-N2′-(6-maleimido-1-oxo-hexyl)maytansine]",inhibition of tubulin polymerization,tubulin,significantly inhibited the tubulin polymerization
CN[C@@H](C)C(=O)OC1CC(=O)N(C)c2cc(cc(OC)c2Cl)C/C(C)=C/C=C/C(OC)C2(O)CC(OC(=O)N2)C(C)C2OC12C (stereo partly shown) [Cys-3AA-MDC],inhibition of tubulin polymerization,tubulin,significantly inhibited the tubulin polymerization
COc1cc2cc(c1Cl)N(C)C(=O)C[C@H](OC(=O)[C@H](C)N(C)C(=O)CCSC1CC(=O)N(CC3CCC(C(=O)NCCCC[C@H](N)C(=O)O)CC3)C1=O)[C@]1(C)O[C@H]1[C@H](C)[C@@H]1C[C@@](O)(NC(=O)O1)[C@H](OC)/C=C/C=C(\C)C2 (stereo partly shown) [Lys-mcc-MDC],inhibition of tubulin polymerization,tubulin,significantly inhibited the tubulin polymerization
COc1cc2cc(c1Cl)N(C)C(=O)C[C@H](OC(=O)[C@H](C)N(C)C(C)=O)[C@]1(C)O[C@H]1[C@H](C)[C@@H]1C[C@@](O)(NC(=O)O1)[C@H](OC)/C=C/C=C(\C)C2 [Maytansine],concentration inhibiting C.E.M. line (as low as),[1],10^−7 μg/mL
same,fold more cytotoxic than conventional chemotherapeutic agents,[2],100- to 1000 fold
Bat1206: monoclonal antibody (rituximab) binding the extracellular domain of CD20,inhibition of CD20 positive cell growth,Raji cells,inhibitory effects
same,inhibition of A431 cell proliferation,[3],had no effects on A431 cells
